Our source for the IC50 values is patent US10894784B2, “Heteroarylbenzimidazole compounds” (BAYER PHARMA AKTIENGESELLSCHAFT, priority 2015, dated 2021).

The structures appear in SMILES notation.

The first assay deals with TBK1 (Homo sapiens (Human), UniProt Q9UHD2). Kind of assay: TBK1 low ATP kinase assay (in vitro assay 1). In kind it is biochemical. The conditions noted are these: TBK1 low ATP kinase assay IC50, in vitro assay 1.
TBK1, sequence (Q9UHD2 whole entry): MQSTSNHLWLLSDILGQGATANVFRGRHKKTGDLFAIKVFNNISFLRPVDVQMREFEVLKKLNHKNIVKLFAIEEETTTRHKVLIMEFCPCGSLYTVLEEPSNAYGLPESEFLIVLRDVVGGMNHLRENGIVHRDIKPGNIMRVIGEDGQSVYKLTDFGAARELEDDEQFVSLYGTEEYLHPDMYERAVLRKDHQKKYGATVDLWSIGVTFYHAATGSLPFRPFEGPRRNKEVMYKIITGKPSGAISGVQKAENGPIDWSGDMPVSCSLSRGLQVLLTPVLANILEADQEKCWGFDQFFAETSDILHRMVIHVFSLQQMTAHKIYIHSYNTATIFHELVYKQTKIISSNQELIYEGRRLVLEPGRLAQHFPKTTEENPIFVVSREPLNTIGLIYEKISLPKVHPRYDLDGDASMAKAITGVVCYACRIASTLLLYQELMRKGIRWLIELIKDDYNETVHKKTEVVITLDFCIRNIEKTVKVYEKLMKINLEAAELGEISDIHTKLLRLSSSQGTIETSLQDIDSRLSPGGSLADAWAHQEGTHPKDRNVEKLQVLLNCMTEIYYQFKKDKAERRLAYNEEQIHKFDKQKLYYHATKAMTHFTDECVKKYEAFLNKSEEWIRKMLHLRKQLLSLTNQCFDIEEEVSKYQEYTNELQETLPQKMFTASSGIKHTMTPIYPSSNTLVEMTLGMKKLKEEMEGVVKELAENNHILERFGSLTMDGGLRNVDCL
Turning to `Cc1cc(-c2ccc3nc(Nc4cc(C(C)N5CCN(C(=O)CC(F)(F)F)CC5)ccn4)[nH]c3c2)ncn1` (single isomer, unassigned) [Example 30.03.01.B, 3,3,3-trifluoro-1-{4-[(1S or 1R)-1-(2-{[6-(6-methylpyrimidin-4-yl)-1H-benzimidazol-2-yl]amino}pyridin-4-yl)ethyl]piperazin-1-yl}propan-1-one], the IC50 turned out to be 2.15 nM.

The same assay, now with this note: in vitro assay 1, read-out: TBK1 low ATP kinase assay IC50.
Take `CC(c1ccnc(Nc2nc3ccc(-c4cnn(CC5CC5(C)C)c4)cc3[nH]2)c1)N1CCN(C(=O)CC(F)(F)F)CC1` (single isomer, unassigned) [Example 67.02, 1-{4-[(1R or 1S)-1-(2-{[6-(1-{[(1RS)-2,2-dimethylcyclopropyl]methyl}-1H-pyrazol-4-yl)-1H-benzimidazol-2-yl]amino}pyridin-4-yl)ethyl]piperazin-1-yl}-3,3,3-trifluoropropan-1-one]: the IC50 came out at 2.9 nM.

Regarding `COc1c(-c2ccc3nc(Nc4cc(CN5CCN(C(=O)C6CC6)CC5)ccn4)[nH]c3c2)ncnc1N(C)C` [Example 107.01.02, cyclopropyl(4-{[2-({6-[6-(dimethylamino)-5-methoxypyrimidin-4-yl]-1H-benzimidazol-2-yl}amino)pyridin-4-yl]methyl}piperazin-1-yl)methanone], the IC50 came to 16 nM.

Take `CCc1cc(-c2ccc3nc(Nc4cc(CN5CCN(C(=O)CC(F)(F)F)CC5)ccn4)[nH]c3c2)ncn1` [Example 91.02, 1-{4-[(2-{[6-(6-ethylpyrimidin-4-yl)-1H-benzimidazol-2-yl]amino}pyridin-4-yl)methyl]piperazin-1-yl}-3,3,3-trifluoropropan-1-one]: the 50% inhibitory concentration (IC50) came to 12 nM.

As for `O=C(CC(F)(F)F)N1CCN(Cc2ccnc(Nc3nc4ccc(-c5ccnc(OCC6CC6)n5)cc4[nH]3)c2)CC1` [Example 62.01.03, 1-(4-{[2-({6-[2-(cyclopropylmethoxy)pyrimidin-4-yl]-1H-benzimidazol-2-yl}amino)pyridin-4-yl]methyl}piperazin-1-yl)-3,3,3-trifluoropropan-1-one], the IC50 amounted to 3.38 nM.

Consider `Cc1noc(-c2ccc3nc(Nc4cc(CN5C[C@@H](C)N(C(=O)C6CC6)C[C@@H]5C)ccn4)[nH]c3c2)n1` [Example 16.02.04, cyclopropyl{(2R,5S)-2,5-dimethyl-4-[(2-{[6-(3-methyl-1,2,4-oxadiazol-5-yl)-1H-benzimidazol-2-yl]amino}pyridin-4-yl)methyl]piperazin-1-yl}methanone], for which the IC50 was 268 nM.

As for `COc1nccc(-c2ccc3nc(Nc4cc(CN5CCN(C(=O)CC(F)(F)F)CC5)ccn4)[nH]c3c2)n1` [Example 25.01.04, 3,3,3-trifluoro-1-{4-[(2-{[6-(2-methoxypyrimidin-4-yl)-1H-benzimidazol-2-yl]amino}pyridin-4-yl)methyl]piperazin-1-yl}propan-1-one], the IC50 stood at 79 nM.

Take `CC(C)(C)OC(=O)N1CCN(Cc2ccnc(Nc3nc4ccc(-c5cc(N6CCCCC6)ncn5)cc4[nH]3)c2)CC1` [Example 145.01, tert-butyl 4-{[2-({6-[6-(piperidin-1-yl)pyrimidin-4-yl]-1H-benzimidazol-2-yl}amino)pyridin-4-yl]methyl}piperazine-1-carboxylate]: the IC50 was determined as 13 nM.

For the molecule `COCc1cc(-c2ccc3nc(Nc4cc(C(C)N5CCN(C(=O)C6CC6)CC5)ccn4)[nH]c3c2)ncn1` (single isomer, unassigned) [Example 84.03, cyclopropyl(4-{(1R or 1S)-1-[2-({6-[6-(methoxymethyl)pyrimidin-4-yl]-1H-benzimidazol-2-yl}amino)pyridin-4-yl]ethyl}piperazin-1-yl)methanone], the IC50 came out at 1.7 nM.

For `COc1cncnc1-c1ccc2nc(Nc3cc(CN4CCN(C(=O)N5CCOCC5)CC4)ccn3)[nH]c2c1` [Example 35.01.07, {4-[(2-{[6-(5-methoxypyrimidin-4-yl)-1H-benzimidazol-2-yl]amino}pyridin-4-yl)methyl]piperazin-1-yl}(morpholin-4-yl)methanone], the IC50 worked out at 77.3 nM.

Regarding `CC(c1ccnc(Nc2nc3ccc(-c4ccncn4)cc3[nH]2)c1)N1CCN(C(=O)C2CC2)CC1` (single isomer, unassigned) [Example 23.05.01.B, cyclopropyl{4-[(1S or 1R)-1-(2-{[6-(pyrimidin-4-yl)-1H-benzimidazol-2-yl]amino}pyridin-4-yl)ethyl]piperazin-1-yl}methanone], the IC50 turned out to be 12.4 nM.

`COc1nccc(-c2ccc3nc(Nc4cc(CN5CCN(C(=O)C6CC6)CC5)cc(C(F)(F)F)n4)[nH]c3c2)n1` [Example 25.02.01, cyclopropyl(4-{[2-{[6-(2-methoxypyrimidin-4-yl)-1H-benzimidazol-2-yl]amino}-6-(trifluoromethyl)pyridin-4-yl]methyl}piperazin-1-yl)methanone]: the concentration for half-maximal inhibition (IC50) stood at 346 nM.

For `COc1c(Cl)ncnc1-c1ccc2nc(Nc3cc(CN4CCN(C(=O)CC(F)(F)F)CC4)ccn3)[nH]c2c1` [Example 60.01, 1-{4-[(2-{[6-(6-chloro-5-methoxypyrimidin-4-yl)-1H-benzimidazol-2-yl]amino}pyridin-4-yl)methyl]piperazin-1-yl}-3,3,3-trifluoropropan-1-one], the IC50 was found to be 43 nM.

As to `Cc1noc(-c2ccc3nc(Nc4cc(CN5CCN(C(=O)CC6CC6)CC5)ccn4)[nH]c3c2)n1` [Example 16.01.03, 2-cyclopropyl-1-{4-[(2-{[6-(3-methyl-1,2,4-oxadiazol-5-yl)-1H-benzimidazol-2-yl]amino}pyridin-4-yl)methyl]piperazin-1-yl}ethanone], the IC50 stood at 115 nM.

As to `Cc1cc(-c2ccc3nc(Nc4cc(C(C)N5CCN(C(=O)C6(C(F)(F)F)CC6)CC5)ccn4)[nH]c3c2F)ncn1` (single isomer, unassigned) [Example 172.04, {4-[(1R or 1S)-1-(2-{[7-fluoro-6-(6-methylpyrimidin-4-yl)-1H-benzimidazol-2-yl]amino}pyridin-4-yl)ethyl]piperazin-1-yl}[1-(trifluoromethyl)cyclopropyl]methanone], the IC50 came out at 20.9 nM.

Turning to `CC(C)Oc1cnccc1-c1ccc2nc(Nc3cc(CN4CCN(C(=O)CC5CC5)CC4)ccn3)[nH]c2c1` [Example 06.03, 2-cyclopropyl-1-(4-{[2-({6-[3-(propan-2-yloxy)pyridin-4-yl]-1H-benzimidazol-2-yl}amino)pyridin-4-yl]methyl}piperazin-1-yl)ethanone], the IC50 was determined as 8.26 nM.

With `CC(c1ccnc(Nc2nc3ccc(-c4cn[nH]c4)cc3[nH]2)c1)N1CCN(C(=O)OC(C)(C)C)CC1` (single isomer, unassigned) [Example 57.01, tert-butyl 4-[(1R or 1S)-1-(2-{[6-(1H-pyrazol-4-yl)-1H-benzimidazol-2-yl]amino}pyridin-4-yl)ethyl]piperazine-1-carboxylate], the IC50 is 7.83 nM.

Turning to `O=C(C1CC1)N1CCN(Cc2ccnc(Nc3nc4ccc(-c5ncnc(NC6CC6)c5F)cc4[nH]3)c2)CC1` [Example 192.03, cyclopropyl(4-{[2-({6-[6-(cyclopropylamino)-5-fluoropyrimidin-4-yl]-1H-benzimidazol-2-yl}amino)pyridin-4-yl]mnethyl}piperazin-1-yl)methanone], the IC50 turned out to be 8.3 nM.

On to `Cc1noc(-c2ccc3nc(Nc4cc(CN5CCN(C(=O)C(C)(C)C)CC5)ccn4)[nH]c3c2)n1` [Example 16.01.06, 2,2-dimethyl-1-{4-[(2-{[6-(3-methyl-1,2,4-oxadiazol-5-yl)-1H-benzimidazol-2-yl]amino}pyridin-4-yl)methyl]piperazin-1-yl}propan-1-one], for which the IC50 is 208 nM.

Consider `Cc1noc(-c2ccc3nc(Nc4cc(CN5CCN(C(=O)c6cccs6)CC5)ccn4)[nH]c3c2)n1` [Example 101.24, {4-[(2-{[6-(3-methyl-1,2,4-oxadiazol-5-yl)-1H-benzimidazol-2-yl]amino}pyridin-4-yl)methyl]piperazin-1-yl}(thiophen-2-yl)methanone], for which the half-maximal inhibitory concentration (IC50) was found to be 160 nM.

On to `Cc1noc(-c2ccc3nc(Nc4cc(CN5CCN(c6ccc(F)cc6F)CC5)ccn4)[nH]c3c2)n1` [Example 101.11, N-(4-{[4-(2,4-difluorophenyl)piperazin-1-yl]methyl}pyridin-2-yl)-6-(3-methyl-1,2,4-oxadiazol-5-yl)-1H-benzimidazol-2-amine], for which the half-maximal inhibitory concentration (IC50) is greater than 20000 nM.

As to `O=C(C1CC1)N1CCN(Cc2ccnc(Nc3nc4ccc(-c5ccnc(N6CCOCC6)c5)cc4[nH]3)c2)CC1` [Example 134.03, cyclopropyl(4-{[2-({6-[2-(morpholin-4-yl)pyridin-4-yl]-1H-benzimidazol-2-yl}amino)pyridin-4-yl]methyl}piperazin-1-yl)methanone], the IC50 stood at 19 nM.

Consider `CCOc1nccc(-c2ccc3nc(Nc4cc(CN5CCN(C(=O)CC6CC6)CC5)ccn4)[nH]c3c2)n1` [Example 26.01.05, 2-cyclopropyl-1-{4-[(2-{[6-(2-ethoxypyrimidin-4-yl)-1H-benzimidazol-2-yl]amino}pyridin-4-yl)methyl]piperazin-1-yl}ethanone], for which the IC50 is 14.1 nM.

For `Cc1noc(-c2ccc3nc(Nc4cc(CN5CCN(C(=O)CC(F)(F)F)CC5)ccn4)[nH]c3c2C)n1` [Example 54.01, 3,3,3-trifluoro-1-{4-[(2-{[7-methyl-6-(3-methyl-1,2,4-oxadiazol-5-yl)-1H-benzimidazol-2-yl]amino}pyridin-4-yl)methyl]piperazin-1-yl}propan-1-one], the IC50 is 243 nM.

Regarding `CN(C)c1cnc(-c2ccc3nc(Nc4cc(CN5CCN(C(=O)CC(F)(F)F)CC5)ccn4)[nH]c3c2)cn1` [Example 144.02, 1-(4-{[2-({6-[5-(dimethylamino)pyrazin-2-yl]-1H-benzimidazol-2-yl}amino)pyridin-4-yl]methyl}piperazin-1-yl)-3,3,3-trifluoropropan-1-one], the IC50 is 350 nM.

Turning to `CC(c1ccnc(Nc2nc3ccc(-c4cc(N5CC(C(F)(F)F)C5)ncn4)cc3[nH]2)c1)N1CCN(C(=O)C2(C(F)(F)F)CC2)CC1` (single isomer, unassigned) [Example 164.04, {4-[(1R or 1S)-1-{2-[(6-{6-[3-(trifluoromethyl)azetidin-1-yl]pyrimidin-4-yl}-1H-benzimidazol-2-yl)amino]pyridin-4-yl}ethyl]piperazin-1-yl}[1-(trifluoromethyl)cyclopropyl]methanone], the IC50 was found to be 0.832 nM.
